Like-named read-outs stand apart in the source and are kept apart here.
What was measured:
Assay in all cases: Kinase binding screen
Settings in all cases: read-out: Percent Control at 100 nM Compound Concentration
IKK-epsilon = IKK-epsilon (Homo sapiens (Human), UniProt Q14164)
KIT(V559D) = KIT(V559D) (Homo sapiens (Human), UniProt P10721, V559D)
MAP3K1 = MAP3K1 (Homo sapiens (Human), UniProt Q13233)
PRKCH = PRKCH (Homo sapiens (Human), UniProt P24723)
SRPK2 = SRPK2 (Homo sapiens (Human), UniProt P78362)
ASK2 = ASK2 (Homo sapiens (Human), UniProt O95382)
MET(M1250T) = MET(M1250T) (Homo sapiens (Human), UniProt P08581, M1250T)
PYK2 = PYK2 (Homo sapiens (Human), UniProt Q14289)
WEE2 = WEE2 (Homo sapiens (Human), UniProt P0C1S8)
LTK = LTK (Homo sapiens (Human), UniProt P29376)
ERN1 = ERN1 (Homo sapiens (Human), UniProt O75460)
MST1 = MST1 (Homo sapiens (Human), UniProt Q13043)
FGFR2 = FGFR2 (Homo sapiens (Human), UniProt P21802)
ABL1-phosphorylated = ABL1-phosphorylated (Homo sapiens (Human), UniProt P00519)
TNIK = TNIK (Homo sapiens (Human), UniProt Q9UKE5)
BRSK2 = BRSK2 (Homo sapiens (Human), UniProt Q8IWQ3)
JNK2 = JNK2 (Homo sapiens (Human), UniProt P45984)
PKMYT1 = PKMYT1 (Homo sapiens (Human), UniProt Q99640)
[1] = target: RSK4(Kin.Dom.2-C-terminal) (Homo sapiens (Human), UniProt Q9UK32)
ERK1 = ERK1 (Homo sapiens (Human), UniProt P27361)
[2] = target: JAK1(JH2domain-pseudokinase) (Homo sapiens (Human), UniProt P23458)
TRPM6 = TRPM6 (Homo sapiens (Human), UniProt Q9BX84)
MEK5 = MEK5 (Homo sapiens (Human), UniProt Q13163)
PKAC-alpha = PKAC-alpha (Homo sapiens (Human), UniProt P17612)
CAMK2A = CAMK2A (Homo sapiens (Human), UniProt Q9UQM7)
CAMK2D = CAMK2D (Homo sapiens (Human), UniProt Q13557)
PAK6 = PAK6 (Homo sapiens (Human), UniProt Q9NQU5)
EGFR(G719C) = EGFR(G719C) (Homo sapiens (Human), UniProt P00533, G719C)
SGK = SGK (Homo sapiens (Human), UniProt O00141)
Chain of SGK (O00141 whole entry): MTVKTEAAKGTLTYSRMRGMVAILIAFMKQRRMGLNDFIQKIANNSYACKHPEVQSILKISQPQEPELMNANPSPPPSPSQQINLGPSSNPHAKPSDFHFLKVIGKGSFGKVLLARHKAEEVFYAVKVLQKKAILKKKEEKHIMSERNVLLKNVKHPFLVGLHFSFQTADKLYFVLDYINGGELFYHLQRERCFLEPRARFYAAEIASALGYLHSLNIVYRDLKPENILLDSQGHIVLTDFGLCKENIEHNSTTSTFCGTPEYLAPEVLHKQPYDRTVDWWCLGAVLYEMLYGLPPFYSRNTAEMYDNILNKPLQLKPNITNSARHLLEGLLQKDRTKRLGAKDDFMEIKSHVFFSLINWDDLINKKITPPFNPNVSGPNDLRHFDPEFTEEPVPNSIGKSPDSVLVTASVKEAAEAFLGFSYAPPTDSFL

Chain of PRKCH (P24723 whole entry): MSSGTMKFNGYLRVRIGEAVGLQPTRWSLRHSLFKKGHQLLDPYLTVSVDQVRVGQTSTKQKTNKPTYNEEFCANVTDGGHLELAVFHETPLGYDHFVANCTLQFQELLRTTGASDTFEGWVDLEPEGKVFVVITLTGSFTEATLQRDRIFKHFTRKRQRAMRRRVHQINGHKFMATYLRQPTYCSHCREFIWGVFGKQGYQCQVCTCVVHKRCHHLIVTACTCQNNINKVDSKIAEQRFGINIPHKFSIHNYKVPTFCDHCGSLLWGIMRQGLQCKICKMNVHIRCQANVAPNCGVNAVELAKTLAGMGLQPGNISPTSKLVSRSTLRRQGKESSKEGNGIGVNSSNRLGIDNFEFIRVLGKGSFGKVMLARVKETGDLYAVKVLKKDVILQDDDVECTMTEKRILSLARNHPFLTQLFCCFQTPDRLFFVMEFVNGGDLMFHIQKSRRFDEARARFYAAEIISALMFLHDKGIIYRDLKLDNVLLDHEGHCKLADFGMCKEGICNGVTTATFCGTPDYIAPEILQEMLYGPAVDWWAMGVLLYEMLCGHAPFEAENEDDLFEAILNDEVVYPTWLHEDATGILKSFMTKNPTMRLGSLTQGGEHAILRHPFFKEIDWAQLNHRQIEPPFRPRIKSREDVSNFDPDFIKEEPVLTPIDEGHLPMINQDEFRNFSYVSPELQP
Chain of FGFR2 (P21802 22-821): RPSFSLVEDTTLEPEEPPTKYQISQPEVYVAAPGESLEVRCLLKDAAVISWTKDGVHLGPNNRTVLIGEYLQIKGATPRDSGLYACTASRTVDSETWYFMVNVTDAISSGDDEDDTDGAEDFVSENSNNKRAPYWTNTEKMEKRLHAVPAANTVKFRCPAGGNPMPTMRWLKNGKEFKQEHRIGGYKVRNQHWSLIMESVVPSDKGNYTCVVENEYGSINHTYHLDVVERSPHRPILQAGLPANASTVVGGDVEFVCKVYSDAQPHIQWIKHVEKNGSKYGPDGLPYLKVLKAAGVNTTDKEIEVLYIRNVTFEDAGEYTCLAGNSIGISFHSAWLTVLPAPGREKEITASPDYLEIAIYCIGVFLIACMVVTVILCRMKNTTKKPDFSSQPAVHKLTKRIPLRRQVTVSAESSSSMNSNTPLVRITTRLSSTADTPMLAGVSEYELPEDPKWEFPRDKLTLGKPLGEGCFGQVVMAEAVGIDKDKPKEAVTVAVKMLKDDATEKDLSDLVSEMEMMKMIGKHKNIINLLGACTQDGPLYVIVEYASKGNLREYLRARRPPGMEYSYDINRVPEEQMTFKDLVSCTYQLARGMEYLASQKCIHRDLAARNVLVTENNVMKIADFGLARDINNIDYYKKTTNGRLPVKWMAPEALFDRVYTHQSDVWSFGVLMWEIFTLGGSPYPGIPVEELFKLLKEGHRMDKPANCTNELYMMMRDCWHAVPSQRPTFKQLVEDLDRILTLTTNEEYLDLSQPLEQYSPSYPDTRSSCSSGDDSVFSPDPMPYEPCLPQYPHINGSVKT
Chain of WEE2 (P0C1S8 whole entry): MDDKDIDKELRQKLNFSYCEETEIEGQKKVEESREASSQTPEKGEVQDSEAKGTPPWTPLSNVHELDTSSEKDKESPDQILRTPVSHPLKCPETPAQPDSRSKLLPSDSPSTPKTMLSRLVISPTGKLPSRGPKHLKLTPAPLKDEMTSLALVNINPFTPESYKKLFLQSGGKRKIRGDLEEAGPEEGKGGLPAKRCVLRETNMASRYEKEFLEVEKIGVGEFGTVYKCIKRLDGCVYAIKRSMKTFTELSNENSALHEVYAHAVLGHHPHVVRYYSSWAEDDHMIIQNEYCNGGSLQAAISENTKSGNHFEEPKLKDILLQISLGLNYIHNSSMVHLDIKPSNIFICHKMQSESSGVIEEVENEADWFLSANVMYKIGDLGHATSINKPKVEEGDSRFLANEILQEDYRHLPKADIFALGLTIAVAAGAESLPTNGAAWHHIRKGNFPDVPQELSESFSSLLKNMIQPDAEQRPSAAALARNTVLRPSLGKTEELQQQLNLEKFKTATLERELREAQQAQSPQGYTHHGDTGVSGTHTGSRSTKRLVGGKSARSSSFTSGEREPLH
Chain of ERN1 (O75460 19-977): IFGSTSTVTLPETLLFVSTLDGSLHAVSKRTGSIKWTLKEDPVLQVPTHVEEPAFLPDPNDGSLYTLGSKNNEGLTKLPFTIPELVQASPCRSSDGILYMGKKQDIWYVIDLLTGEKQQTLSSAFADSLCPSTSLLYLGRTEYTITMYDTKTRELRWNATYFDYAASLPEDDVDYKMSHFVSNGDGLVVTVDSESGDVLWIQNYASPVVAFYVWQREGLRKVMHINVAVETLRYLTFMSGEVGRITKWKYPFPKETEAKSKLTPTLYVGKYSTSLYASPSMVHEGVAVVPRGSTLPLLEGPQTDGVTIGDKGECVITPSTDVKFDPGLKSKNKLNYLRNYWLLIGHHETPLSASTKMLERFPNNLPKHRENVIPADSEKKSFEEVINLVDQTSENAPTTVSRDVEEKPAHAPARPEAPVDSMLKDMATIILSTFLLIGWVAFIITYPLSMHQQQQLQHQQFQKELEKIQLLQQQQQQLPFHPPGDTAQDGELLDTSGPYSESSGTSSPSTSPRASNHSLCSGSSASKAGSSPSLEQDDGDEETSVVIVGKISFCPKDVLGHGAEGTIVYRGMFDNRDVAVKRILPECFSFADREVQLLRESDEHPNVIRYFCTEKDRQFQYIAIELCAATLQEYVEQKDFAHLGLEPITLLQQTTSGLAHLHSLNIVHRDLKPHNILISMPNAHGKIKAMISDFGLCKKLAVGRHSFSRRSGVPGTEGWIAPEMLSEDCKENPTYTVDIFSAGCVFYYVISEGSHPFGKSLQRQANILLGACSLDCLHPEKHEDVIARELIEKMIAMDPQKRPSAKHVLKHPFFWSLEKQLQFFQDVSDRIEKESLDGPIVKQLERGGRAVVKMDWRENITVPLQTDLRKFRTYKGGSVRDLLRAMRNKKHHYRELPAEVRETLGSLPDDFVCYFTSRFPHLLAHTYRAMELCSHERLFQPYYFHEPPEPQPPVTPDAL
Chain of KIT(V559D) (P10721 26-976 V559D): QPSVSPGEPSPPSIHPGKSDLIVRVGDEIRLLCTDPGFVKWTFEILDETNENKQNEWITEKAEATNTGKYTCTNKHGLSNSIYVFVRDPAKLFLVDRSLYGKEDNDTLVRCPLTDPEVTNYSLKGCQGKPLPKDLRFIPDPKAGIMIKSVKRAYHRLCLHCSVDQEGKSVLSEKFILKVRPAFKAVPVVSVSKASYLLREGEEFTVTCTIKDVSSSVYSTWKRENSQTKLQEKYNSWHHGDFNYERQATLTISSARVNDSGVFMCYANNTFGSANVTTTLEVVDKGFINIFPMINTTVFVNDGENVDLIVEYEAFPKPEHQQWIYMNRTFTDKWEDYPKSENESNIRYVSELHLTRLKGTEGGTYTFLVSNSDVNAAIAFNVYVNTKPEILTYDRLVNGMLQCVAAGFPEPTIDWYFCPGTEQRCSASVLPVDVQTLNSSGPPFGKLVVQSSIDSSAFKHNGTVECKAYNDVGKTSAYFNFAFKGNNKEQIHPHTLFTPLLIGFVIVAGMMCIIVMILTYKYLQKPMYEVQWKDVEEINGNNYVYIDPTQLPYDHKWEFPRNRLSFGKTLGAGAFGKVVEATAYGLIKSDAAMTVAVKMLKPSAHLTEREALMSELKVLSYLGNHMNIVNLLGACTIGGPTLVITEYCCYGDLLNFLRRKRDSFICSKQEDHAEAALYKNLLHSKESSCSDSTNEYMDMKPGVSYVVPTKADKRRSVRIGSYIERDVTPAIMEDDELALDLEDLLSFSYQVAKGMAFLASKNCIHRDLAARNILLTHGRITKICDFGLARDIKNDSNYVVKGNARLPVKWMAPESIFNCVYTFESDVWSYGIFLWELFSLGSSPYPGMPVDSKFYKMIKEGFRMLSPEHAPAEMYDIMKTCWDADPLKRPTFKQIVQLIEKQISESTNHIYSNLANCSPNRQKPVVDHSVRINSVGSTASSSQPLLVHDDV
Chain of MEK5 (Q13163 whole entry): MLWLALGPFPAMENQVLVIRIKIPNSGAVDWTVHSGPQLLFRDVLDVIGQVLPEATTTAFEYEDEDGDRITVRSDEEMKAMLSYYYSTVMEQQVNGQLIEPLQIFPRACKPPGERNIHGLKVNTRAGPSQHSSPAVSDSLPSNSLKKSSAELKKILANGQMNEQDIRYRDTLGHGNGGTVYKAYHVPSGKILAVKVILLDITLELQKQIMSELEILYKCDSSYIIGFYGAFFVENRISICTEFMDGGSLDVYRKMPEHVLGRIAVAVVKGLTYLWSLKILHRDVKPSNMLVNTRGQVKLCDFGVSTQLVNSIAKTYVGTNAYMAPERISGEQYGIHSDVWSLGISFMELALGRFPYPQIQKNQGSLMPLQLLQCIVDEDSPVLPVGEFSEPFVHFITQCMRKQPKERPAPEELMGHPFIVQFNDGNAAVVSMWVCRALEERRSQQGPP

Compound: CN(C[C@H](Cc1ccccc1)OP(=O)(O)O)C(=O)c1cncc(C#Cc2cnn(C(F)F)c2)c1 [Example 19, (S)-1-(5-((1-(difluoromethyl)-1H-pyrazol-4-yl)ethynyl)-N-methylnicotinamido)-3-phenylpropan-2-yl dihydrogen phosphate]
- remaining activity at 0.1 µM (IKK-epsilon): 94%
- remaining activity at 0.1 µM (KIT(V559D)): 96%
- remaining activity at 0.1 µM (MAP3K1): 100%
- remaining activity at 0.1 µM (PRKCH): 91%
- remaining activity at 0.1 µM (SRPK2): 100%
- remaining activity at 0.1 µM (ASK2): 98%
- remaining activity at 0.1 µM (MET(M1250T)): 100%
- remaining activity at 0.1 µM (PYK2): 100%
- remaining activity at 0.1 µM (WEE2): 100%
- remaining activity at 0.1 µM (LTK): 100%
- remaining activity at 0.1 µM (ERN1): 93%
- remaining activity at 0.1 µM (MST1): 100%
- remaining activity at 0.1 µM (FGFR2): 100%
- remaining activity at 0.1 µM (ABL1-phosphorylated): 78%
- remaining activity at 0.1 µM (TNIK): 100%
- remaining activity at 0.1 µM (BRSK2): 95%
- remaining activity at 0.1 µM (JNK2): 92%
- remaining activity at 0.1 µM (PKMYT1): 100%
- remaining activity at 0.1 µM [1]: 100%
- remaining activity at 0.1 µM (ERK1): 95%
- remaining activity at 0.1 µM [2]: 86%
- remaining activity at 0.1 µM (TRPM6): 95%
- remaining activity at 0.1 µM (MEK5): 87%
- remaining activity at 0.1 µM (PKAC-alpha): 94%
- remaining activity at 0.1 µM (CAMK2A): 100%
- remaining activity at 0.1 µM (CAMK2D): 100%
- remaining activity at 0.1 µM (PAK6): 80%
- remaining activity at 0.1 µM (EGFR(G719C)): 77%
- remaining activity at 0.1 µM (SGK): 90%

Compound: CN(C[C@@H](O)Cc1ccccc1)C(=O)c1cncc(C#Cc2cnn(C(F)F)c2)c1 [Example 2, (S)-5-((1-(difluoromethyl)-1H-pyrazol-4-yl)ethynyl)-N-(2-hydroxy-3-phenylpropyl)-N-methylnicotinamide]
- remaining activity at 0.1 µM (IKK-epsilon; IKK-epsilon): 100%
- remaining activity at 0.1 µM (KIT(V559D); KIT(V559D)): 100%
- remaining activity at 0.1 µM (MAP3K1; MAP3K1): 100%
- remaining activity at 0.1 µM (PRKCH; PRKCH): 100%
- remaining activity at 0.1 µM (SRPK2; SRPK2): 93%
- remaining activity at 0.1 µM (ASK2; ASK2): 100%
- remaining activity at 0.1 µM (MET(M1250T); MET(M1250T)): 100%
- remaining activity at 0.1 µM (PYK2; PYK2): 100%
- remaining activity at 0.1 µM (WEE2; WEE2): 100%
- remaining activity at 0.1 µM (LTK; LTK): 100%
- remaining activity at 0.1 µM (ERN1; ERN1): 100%
- remaining activity at 0.1 µM (MST1; MST1): 100%
- remaining activity at 0.1 µM (FGFR2; FGFR2): 100%
- remaining activity at 0.1 µM (ABL1-phosphorylated; ABL1-phosphorylated): 79%
- remaining activity at 0.1 µM (TNIK; TNIK): 100%
- remaining activity at 0.1 µM (BRSK2; BRSK2): 96%
- remaining activity at 0.1 µM (JNK2; JNK2): 91%
- remaining activity at 0.1 µM (PKMYT1; PKMYT1): 99%
- remaining activity at 0.1 µM ([1]; RSK4(Kin.Dom.2-C-terminal)): 100%
- remaining activity at 0.1 µM (ERK1; ERK1): 97%
- remaining activity at 0.1 µM ([2]; JAK1(JH2domain-pseudokinase)): 93%
- remaining activity at 0.1 µM (TRPM6; TRPM6): 99%
- remaining activity at 0.1 µM (MEK5; MEK5): 89%
- remaining activity at 0.1 µM (PKAC-alpha; PKAC-alpha): 94%
- remaining activity at 0.1 µM (CAMK2A; CAMK2A): 97%
- remaining activity at 0.1 µM (CAMK2D; CAMK2D): 100%
- remaining activity at 0.1 µM (PAK6; PAK6): 85%
- remaining activity at 0.1 µM (EGFR(G719C); EGFR(G719C)): 100%
- remaining activity at 0.1 µM (SGK; SGK): 96%

From patent publication US11767310B2, “Nicotinamide RIPK1 inhibitors” (AbbVie Inc., priority 2021, dated 2023)
